These are literature values, as cited in patent publication US11419872B2, “Phosphoinositide 3-kinase and Src inhibitors for treatment of pancreatic cancer” (Innoplexus AG, priority 2020, dated 2022).

For data set [1] the following is noted: for adverse events reported: literature reports.
For data set [2] the following is noted: in vivo.
In data set [3] the test system is gastric cancer cell line MKN-1.
The test system of data set [4] is breast cancer cell line MDA-MB-231.
The test system of data set [5] is colon carcinoma cell line CT26.
In data set [6] the test system is human embryonic kidney cell line HEK293.
In data set [7] the test system is pancreatic cancer cell line PANC-1. To be noted: PANC-1 (Suzuki et al. 2016).
Data set [8] relates to primary tumours and metastasis. The note with it: pre-clinical animal models.
For another data set, the target named is CYP3A4 (Homo sapiens, UniProt P08684).
Sequence of CYP3A4 (P08684 whole entry): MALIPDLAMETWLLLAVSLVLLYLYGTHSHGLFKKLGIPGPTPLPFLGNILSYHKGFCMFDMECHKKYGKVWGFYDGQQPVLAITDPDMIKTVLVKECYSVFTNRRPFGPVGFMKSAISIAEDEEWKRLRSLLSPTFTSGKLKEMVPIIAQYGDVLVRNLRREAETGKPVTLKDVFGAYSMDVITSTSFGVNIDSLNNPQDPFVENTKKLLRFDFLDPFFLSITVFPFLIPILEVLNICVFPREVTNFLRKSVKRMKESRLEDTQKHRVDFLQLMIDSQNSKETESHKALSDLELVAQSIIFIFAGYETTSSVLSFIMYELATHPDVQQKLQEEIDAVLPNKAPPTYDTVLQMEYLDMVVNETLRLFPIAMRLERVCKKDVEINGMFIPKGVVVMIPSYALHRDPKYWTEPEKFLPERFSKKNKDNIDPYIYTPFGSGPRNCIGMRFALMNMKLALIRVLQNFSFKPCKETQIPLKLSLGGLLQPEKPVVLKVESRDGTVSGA

Regarding `COc1cc(Nc2ncc(F)c(Nc3ccc4c(n3)N(COP(=O)(O)O)C(=O)C(C)(C)O4)n2)cc(OC)c1OC` [fostamatinib], in data set [1], the adverse events reported entry was “white blood cell disorder, hematological and hepatobiliary disorders”.

With `O=C1CCc2ccc(OCCCCN3CCN(c4cccc(Cl)c4Cl)CC3)cc2N1` [aripiprazole, 7-[4-[4-(2,3-dichlorophenyl)piperazin-1-yl]butoxy]-3,4-dihydro-1Hquinolin-2-one], the “Log P” value is on record as 4.55. Also, the elimination half-life result in [2] is recorded as “approximately 75 hours”. Also, in the data set on glioma cell line U251, the cell viability result was “reduced the viability”. Further, the cell viability entry in the data set with glioma cell line LN428 is recorded as “reduced the viability”. Besides, in [3], the cell viability result is given as “reduced the viability”. In addition, in data set [4], the cell viability entry is on record as “reduced the viability”. Besides, in data set [5], the cell viability entry is given as “reduced the viability”. Besides, the cell viability entry in [6] is given as “reduced the viability”. The “cell death and number of viable cells” value in [7] was “induced cell death and accordingly decreased the number of viable cells”.

With `O=C(Cc1ccc(-c2ccc(OCCN3CCOCC3)cc2)cn1)NCc1ccccc1` [KX2-391, N-benzyl-2-[5-[4-(2-morpholin-4-ylethoxy)phenyl]pyridin-2-yl] acetamide], in data set [8], the “growth of primary tumours and metastasis” value is “inhibits the growth of both primary tumours and metastasis”.

With `C[C@H](Nc1ncnc2[nH]cnc12)c1cc2cccc(Cl)c2c(=O)n1-c1ccccc1` [duvelisib, 8-Chloro-2-phenyl-3-[(1S)-1-(3H-purin-6-ylamino)ethyl]-1(2H)-isoquinolinone], the adverse events reported result in data set [1] is “diarrhea or colitis, cutaneous reactions, infections and pneumonitis”. Moreover, in data set [1] (patients with advanced hematologic malignancies), the safety profile result is “manageable safety profile”. At CYP3A4, the primary metabolising enzyme entry is reported as “primarily metabolized by CYP3A4”.

Regarding `COc1c(OCCCN2CCOCC2)ccc2c1N=C(NC(=O)c1cnc(N)nc1)N1CCN=C21` [copanlisib, amino-N-[7-methoxy-8-(3-morpholin-4-ylpropoxy)-2,3-dihydro-1 H-imidazo [1,2-c]quinazolin-5-ylidene] pyrimidine-5-carboxamide], in data set [1], the adverse events reported result is “cardiac disorders, glucose metabolism disorders or neurological disorders”.

For `Cc1c(O)c(=O)ccn1C` [deferiprone], in data set [1], the adverse events reported result is listed as “joint pain, stiffness or swelling”.

On to `CC[C@H](Nc1ncnc2[nH]cnc12)c1nc2cccc(F)c2c(=O)n1-c1ccccc1` [Idealisib, 5-fluoro-3-phenyl-2-[(1S)-1-(7H-purin-6-ylamino)propyl] quinazolin-4-one], for which the adverse events reported result in data set [1] was “pneumonitis, hematological disorder, diarrhea and colitis”.

A word on the Log P: it is a log measure of how a compound divides between an organic and an aqueous phase.
